Literature values, collected in patent US20030148386A1, “Method for drug design using comparative molecular field analysis (CoMFA) extended for multi-mode/multi-species ligand binding and disposition” (priority 2001, published 2003).

Target: T1, aryl hydrocarbon (Ah) receptor (Rattus norvegicus, UniProt P41738)
T1 sequence (P41738 10-853): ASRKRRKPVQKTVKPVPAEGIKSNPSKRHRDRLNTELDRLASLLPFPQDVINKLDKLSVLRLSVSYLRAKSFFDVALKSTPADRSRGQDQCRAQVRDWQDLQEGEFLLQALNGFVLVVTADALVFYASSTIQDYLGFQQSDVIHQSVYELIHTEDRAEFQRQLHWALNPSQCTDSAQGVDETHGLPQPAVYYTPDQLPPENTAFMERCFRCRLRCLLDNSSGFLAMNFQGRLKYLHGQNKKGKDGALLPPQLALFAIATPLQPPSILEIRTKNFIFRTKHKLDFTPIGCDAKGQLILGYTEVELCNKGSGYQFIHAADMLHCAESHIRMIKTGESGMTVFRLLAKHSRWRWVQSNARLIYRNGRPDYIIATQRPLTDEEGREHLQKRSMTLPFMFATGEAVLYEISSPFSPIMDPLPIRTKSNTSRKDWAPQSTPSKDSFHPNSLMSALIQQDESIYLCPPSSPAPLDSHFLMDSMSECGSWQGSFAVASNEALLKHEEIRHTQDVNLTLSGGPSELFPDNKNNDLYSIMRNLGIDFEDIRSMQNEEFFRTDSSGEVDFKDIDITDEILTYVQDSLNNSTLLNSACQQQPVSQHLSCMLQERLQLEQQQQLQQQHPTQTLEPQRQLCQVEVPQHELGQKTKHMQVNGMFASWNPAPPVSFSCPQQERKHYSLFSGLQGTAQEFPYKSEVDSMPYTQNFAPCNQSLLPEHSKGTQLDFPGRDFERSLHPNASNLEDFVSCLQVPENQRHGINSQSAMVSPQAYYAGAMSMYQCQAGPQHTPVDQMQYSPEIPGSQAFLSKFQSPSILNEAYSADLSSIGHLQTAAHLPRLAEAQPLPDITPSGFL
Conditions: not given

| SMILES | binding affinity to the Ah receptor (in words) |
| --- | --- |
| Clc1cc2oc3c(Cl)c(Cl)c(Cl)cc3c2cc1Cl [Compound 29] | highest binding affinity |
| Clc1cc2c(cc1Cl)Oc1cc(Cl)c(Cl)cc1O2 [TCDD, 2,3,7,8-tetrachloro dibenzodioxin, reference compound] | highest binding affinity |

Same assay, conditions: pEC50=-log(EC50)=logKi, EC50 in mol/L; displacement of radiolabeled TCDD

| SMILES | pEC50 observed |
| --- | --- |
| Clc1ccc2c(c1)oc1ccccc12 [Compound 03] | 4.377 ± 0.058 |
| Clc1cc(Cl)c2c(c1)oc1c(Cl)cccc12 [Compound 08] | 5.357 |
| Clc1cc(Cl)c2c(c1)oc1ccc(Cl)cc12 [Compound 09] | 4.071 |
| Clc1cc2oc3c(Cl)cccc3c2c(Cl)c1Cl [Compound 13] | 6.456 |
| Clc1ccc2c(c1)oc1cc(Cl)c(Cl)c(Cl)c12 [Compound 14] | 6.959 |
| Clc1cc2c(oc3c(Cl)cccc32)c(Cl)c1Cl [Compound 16] | 6.456 |
| Clc1ccc2c(c1)oc1c(Cl)c(Cl)c(Cl)cc12 [Compound 17] | 7.602 |
| Clc1ccc2oc3c(Cl)c(Cl)c(Cl)cc3c2c1 [Compound 18] | 6.699 |
| Clc1cc(Cl)c2oc3cc(Cl)c(Cl)cc3c2c1 [Compound 19] | 6.658 |
| Clc1cc2oc3cc(Cl)c(Cl)cc3c2cc1Cl [Compound 20] | 7.387 ± 0.059 |
| Clc1ccc2oc3c(Cl)c(Cl)c(Cl)c(Cl)c3c2c1 [Compound 21] | 6.921 |
| Clc1cc2oc3cc(Cl)c(Cl)c(Cl)c3c2cc1Cl [Compound 22] | 7.128 ± 0.105 |
| Clc1cc(Cl)c2c(c1)oc1cc(Cl)c(Cl)c(Cl)c12 [Compound 23] | 6.398 |
| Clc1ccc2c(oc3c(Cl)cc(Cl)c(Cl)c32)c1Cl [Compound 24] | 7.169 |
| Clc1cc(Cl)c2oc3c(Cl)cc(Cl)c(Cl)c3c2c1 [Compound 25] | 5.509 |
| Clc1cc2oc3c(Cl)cc(Cl)c(Cl)c3c2cc1Cl [Compound 26] | 5.886 |
| Clc1cc(Cl)c2c(c1)oc1c(Cl)cc(Cl)c(Cl)c12 [Compound 27] | 4.699 |
| Clc1cc2oc3c(Cl)c(Cl)cc(Cl)c3c2cc1Cl [Compound 28] | 6.699 |
| Clc1cc2oc3c(Cl)c(Cl)c(Cl)cc3c2cc1Cl [Compound 29] | 7.824 ± 0.028 |
| Clc1cc(Cl)c2c(c1)oc1c(Cl)c(Cl)c(Cl)cc12 [Compound 30] | 6.699 |
| Clc1cc2oc3c(Cl)c(Cl)c(Cl)c(Cl)c3c2cc1Cl [Compound 31] | 6.638 |
| Clc1cc2c(oc3cc(Cl)c(Cl)c(Cl)c32)c(Cl)c1Cl [Compound 32] | 6.569 ± 0.137 |
| Clc1cc2c(oc3c(Cl)cc(Cl)c(Cl)c32)c(Cl)c1Cl [Compound 33] | 5.081 |
| Clc1cc2c(oc3c(Cl)c(Cl)c(Cl)cc32)c(Cl)c1Cl [Compound 34] | 7.328 ± 0.036 |
